In test [1] the target is T1, human serotonin 5-HT2A receptor (Homo sapiens, UniProt P28223).
T1 construct: expressed in transfected cells; host or cells: HEK-293 EBNA cells, transient transfection; membrane preparation
The experiment in a line: Radioligand binding ([3H]-ketanserin) to membranes of HEK-293 EBNA cells expressing human 5-HT2A receptor. The conditions noted are these: 1.1 nM [3H]-ketanserin, HEK-293 EBNA membranes, 1 h at RT. The method, then: (§1) The ability of the compounds to bind to the 5-HT2A, D3 and D2 receptors was determined using radioligand binding to cloned receptors selectively expressed in HEK-293 EBNA cells.
(§2) Membrane Preparation for Human D2, Human D3 and Human 5-HT2A Receptors
(§3) HEK-293 EBNA cells were transiently transfected with expression plasmids encoding for the human D2 or D3 dopamine- or for the human 5-HT2A serotonin receptor, respectively. The cells were harvested 48 h post-transfection, washed three times with cold PBS and stored at −80° C. prior to use. The pellet was suspended in cold 50 mM Tris-HCl buffer containing 10 mM EDTA (pH 7.4) and homogenized with a Polytron (Kinematica AG, Basel, Switzerland) for 20-30 sec at 12.000 rpm. After centrifugation at 48.000×g for 30 min at 4° C., the pellet was resuspended in cold 10 mM Tris-HCl buffer containing 0.1 mM EDTA (pH 7.4), homogenized, and centrifuged as above. This pellet was further resuspended in a smaller volume of ice cold 10 mM Tris-HCl buffer containing 0.1 mM EDTA (pH 7.4) and homogenized with a Polytron for 20-30 sec at 12.000 rpm. The protein content of this homogenate was determined with the Bio-Rad (Bradford) Protein Assay (Biorad Laboratories GmbH, München, Germany) according to the instructions of the manufacturer using gamma globulin as the standard. This homogenate was stored at −80° C. in aliquots and thawed immediately prior to use.
(§4) Radioligand Binding Assay Conditions
(§5) Aliquots of membrane preparations were thawed at RT, resupended in assay buffer (D2, D3: 50 mM Tris-HCl, 120 mM NaCl, 5 mM MgCl2, 1 mM EDTA, 5 mM KCl, 1.5 mM CaCl2, pH=7.4; 5-HT2A: 50 mM Tris-HCl, 10 mM MgCl2, 1 mM EGTA, pH=7.4), homogenized with a Polytron for 20-30 sec at 12.000 rpm and adjusted to a final concentration of approximately 7.5 μg protein/well (D2, D3) and 15 μg protein/well (5-HT2A), respectively.
(§6) The binding affinity (Ki) of the compounds was determined using radioligand binding. Membranes were incubated in a total volume of 200 μl with a fixed concentration of radioligand (final concentration approximately 0.7 nM [^3H]-spiperone for D2, 0.5 nM [^3H]-spiperone for D3, and 1.1 nM [^3H]-ketanserin for 5-HT2A) and ten concentrations of test compound in ranging between 10 μM-0.1 nM for 1 h at RT. At the end of the incubation, the reaction mixtures were filtered on to unifilter 96-well white microplates with bonded GF/C filters (Packard BioScience, Zurich, Switzerland; preincubated for 1 h in 0.1% polyethylenimine (PEI) in assay buffer) with a Filtermate 196 harvester (Packard BioScience) and washed 3 times with cold assay buffer. The nonspecific binding was determined with equally composed reaction mixtures in the presence of 10 μM unlabelled spiperone. Per well 45 μl of Microscint 40 (Perkin Elmer, Schwerzenbach, Switzerland) was added, plates for sealed, shaken for 20 min and counted for 3 min on a Topcount Microplate Scintillation Counter (Canberra Packard SA, Zurich, Switzerland) with quenching correction.
(§7) The CPM value for each duplicate of a concentration of competing compound was averaged (y1), then the % specific binding was calculated according to the equation (((y1−non-specific)/(total binding-non-specific))×100). Graphs were plotted with the % specific binding using XLfit, a curve fitting program that iteratively plots the data using Levenburg Marquardt algorithm. The single site competition analysis equation used was y=A+((B−A)/(1+((x/C)^D))), where y is the % specific binding, A is the minimum y, B is the maximum y, C is the IC50, x is the log10 of the concentration of the competing compound and D is the slope of the curve (the Hill Coefficient). From these curves the IC50 (inhibition concentration at which 50% specific binding of the radioligand was displaced) and Hill coefficient were determined. […]

Test [2] concerns the target T2, human dopamine D3 receptor (Homo sapiens, UniProt P35462).
T2 construct: expressed in transfected cells; host or cells: HEK-293 EBNA cells, transient transfection; membrane preparation
The experiment in a line: Radioligand binding ([3H]-spiperone) to membranes of HEK-293 EBNA cells expressing human D3 receptor. Conditions: human D3, 0.5 nM [3H]-spiperone, HEK-293 EBNA membranes, 1 h at RT. The procedure: as §1, §2, §3, §4, §5, §6, §7

Test [3] concerns the target T3, human dopamine D2 receptor (Homo sapiens, UniProt P14416).
T3 construct: expressed in transfected cells; host or cells: HEK-293 EBNA cells, transient transfection; membrane preparation
Nature of the test: Radioligand binding ([3H]-spiperone) to membranes of HEK-293 EBNA cells expressing human D2 receptor. The conditions noted are these: human D2, 0.7 nM [3H]-spiperone, HEK-293 EBNA membranes, 1 h at RT. The method, then:
as §1, §2, §3, §4, §5, §6, §7

Each structure is given as a SMILES string.

T1 sequence (P28223 whole entry): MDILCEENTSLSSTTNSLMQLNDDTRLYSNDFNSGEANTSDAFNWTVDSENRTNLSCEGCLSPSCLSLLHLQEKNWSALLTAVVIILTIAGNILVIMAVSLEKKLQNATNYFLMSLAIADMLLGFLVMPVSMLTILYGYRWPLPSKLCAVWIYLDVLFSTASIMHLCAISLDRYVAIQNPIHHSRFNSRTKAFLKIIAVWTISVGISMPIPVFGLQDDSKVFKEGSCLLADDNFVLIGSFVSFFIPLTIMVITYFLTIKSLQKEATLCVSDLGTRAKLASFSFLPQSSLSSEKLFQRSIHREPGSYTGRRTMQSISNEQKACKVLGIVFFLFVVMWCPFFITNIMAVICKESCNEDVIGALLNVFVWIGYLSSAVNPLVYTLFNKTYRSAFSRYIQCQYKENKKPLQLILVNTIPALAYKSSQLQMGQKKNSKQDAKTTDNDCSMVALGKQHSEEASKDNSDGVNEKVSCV
T2 sequence (P35462 whole entry): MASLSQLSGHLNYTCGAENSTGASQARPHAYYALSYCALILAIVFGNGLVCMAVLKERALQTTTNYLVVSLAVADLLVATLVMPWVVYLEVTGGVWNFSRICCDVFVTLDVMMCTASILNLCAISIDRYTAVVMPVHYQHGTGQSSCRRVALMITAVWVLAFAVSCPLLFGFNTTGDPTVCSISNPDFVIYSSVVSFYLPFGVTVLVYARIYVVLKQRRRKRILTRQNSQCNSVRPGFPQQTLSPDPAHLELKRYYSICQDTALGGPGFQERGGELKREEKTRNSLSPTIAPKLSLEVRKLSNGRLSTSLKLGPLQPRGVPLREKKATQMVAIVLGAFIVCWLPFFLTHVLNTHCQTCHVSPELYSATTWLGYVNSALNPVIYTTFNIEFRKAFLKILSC
T3 sequence (P14416 whole entry): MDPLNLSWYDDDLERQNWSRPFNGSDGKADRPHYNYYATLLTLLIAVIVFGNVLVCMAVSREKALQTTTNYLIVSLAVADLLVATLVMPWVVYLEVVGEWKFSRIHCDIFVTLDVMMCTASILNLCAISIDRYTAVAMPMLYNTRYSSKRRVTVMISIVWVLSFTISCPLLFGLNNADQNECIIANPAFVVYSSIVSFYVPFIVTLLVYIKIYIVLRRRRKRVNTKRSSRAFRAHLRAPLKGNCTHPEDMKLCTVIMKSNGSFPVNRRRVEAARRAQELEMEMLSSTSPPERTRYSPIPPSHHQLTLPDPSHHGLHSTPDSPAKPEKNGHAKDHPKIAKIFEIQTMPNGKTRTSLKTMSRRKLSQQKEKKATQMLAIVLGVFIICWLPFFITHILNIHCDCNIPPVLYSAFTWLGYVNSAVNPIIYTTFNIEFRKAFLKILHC

Take `CC(C)(O)CC(=O)N[C@H]1CC[C@H](CCN2CCN(c3noc4cc(F)c(F)cc34)CC2)CC1` [Example 64, N-trans-(4-{2-[4-(5,6-Difluoro-benzo[d]isoxazol-3-yl)-piperazin-1-yl]-ethyl}-cyclohexyl)-3-hydroxy-3-methyl-butyramide]: the figures for the inhibitory constant (Ki) in test [1], in test [2] and in test [3] were 11.8 nM, 10.1 nM and 598 nM, respectively.

For the compound `O=C(CC1C[C@@H]2CC[C@H]1O2)N[C@H]1CC[C@H](CCN2CCN(c3noc4ccc(F)cc34)CC2)CC1` (stereo in doubt) [Example 19, N-trans-(4-{2-[4-(5-Fluoro-benzo[d]isoxazol-3-yl)-piperazin-1-yl]-ethyl}-cyclohexyl)-2-(1R,4S)-7-oxa-bicyclo[2.2.1]hept-2-yl-acetamide], the figures for the inhibition constant Ki in test [1], in test [2] and in test [3] were 20.6 nM, 36 nM and 1020 nM, respectively.

Regarding `O=C(N[C@H]1CC[C@H](CCN2CCN(c3noc4cc(F)c(F)cc34)CC2)CC1)C1CCOCC1` [Example 67, Tetrahydro-pyran-4-carboxylic acid N-trans-(4-{2-[4-(5,6-difluoro-benzo[d]isoxazol-3-yl)-piperazin-1-yl]-ethyl}-cyclohexyl)-amide], the Ki – broadly, the equilibrium dissociation constant of an inhibitor or competing ligand from its target – in test [1] is 7.72 nM; in test [2], 30 nM; in test [3], 2670 nM.

Turning to `CO[C@H]1CC[C@H](CC(=O)N[C@H]2CC[C@H](CCN3CCN(c4noc5cc(F)c(F)cc45)CC3)CC2)CC1` [Example 58, N-trans-(4-{2-[4-(5,6-Difluoro-benzo[d]isoxazol-3-yl)-piperazin-1-yl]-ethyl}-cyclohexyl)-2-trans-(4-methoxy-cyclohexyl)-acetamide], the figures for the inhibitory constant (Ki) in test [1], in test [2] and in test [3] were 7.59 nM, 14.4 nM and 11300 nM, respectively.

As to `Cc1cc2c(N3CCN(CC[C@H]4CC[C@H](NC(=O)C[C@@H]5COCCO5)CC4)CC3)noc2cc1F` [Example 114, 2-(R)-[1,4]Dioxan-2-yl-N-trans-(4-{2-[4-(6-fluoro-5-methyl-benzo[d]isoxazol-3-yl)-piperazin-1-yl]-ethyl}-cyclohexyl)-acetamide], the figures for the Ki in test [1], in test [2] and in test [3] were 17 nM, 31 nM and more than 9700 nM, respectively.

As for `O=C(CC1COC1)N[C@H]1CC[C@H](CCN2CCN(c3noc4cc(Cl)ccc34)CC2)CC1` [Example 47, N-trans-(4-{2-[4-(6-Chloro-benzo[d]isoxazol-3-yl)-piperazin-1-yl]-ethyl}-cyclohexyl)-2-oxetan-3-yl-acetamide], the values for the Ki in test [1], in test [2] and in test [3] were 6.59 nM, 8.14 nM and 238 nM, respectively.

Consider `O=C(CC1COCCO1)N[C@H]1CC[C@H](CCN2CCN(c3noc4cc(F)c(Cl)cc34)CC2)CC1` (stereo partly drawn) [Example 76, N-trans-(4-{2-[4-(5-Chloro-6-fluoro-benzo[d]isoxazol-3-yl)-piperazin-1-yl]-ethyl}-cyclohexyl)-2-[1,4]dioxan-2-yl-acetamide], for which the inhibition constant (Ki) in test [1] stood at 20.4 nM; in test [2], 19.9 nM; in test [3], 632 nM.

Turning to `O=C(CO)N[C@H]1CC[C@H](CCN2CCN(c3noc4cc(Cl)ccc34)CC2)CC1` [Example 42, N-trans-(4-{2-[4-(6-Chloro-benzo[d]isoxazol-3-yl)-piperazin-1-yl]-ethyl}-cyclohexyl)-2-hydroxy-acetamide], the Ki turned out to be 6.99 nM in test [1], 11 nM in test [2] and 809 nM in test [3].

In the case of `CO[C@@H]1CC[C@@H](CC(=O)N[C@H]2CC[C@H](CCN3CCN(c4noc5ccccc45)CC3)CC2)C1` (relative stereo) [Example 3, N-trans-{4-[2-(4-Benzo[d]isoxazol-3-yl-piperazin-1-yl)-ethyl]-cyclohexyl]-2-trans-(3-methoxy-cyclopentyl)-acetamide], the Ki in test [1] turned out to be 482 nM; in test [2], 13.9 nM; in test [3], 355 nM.

As for `COCCC(=O)N[C@H]1CC[C@H](CCN2CCN(c3noc4ccc(F)cc34)CC2)CC1` [Example 5, N-trans-(4-{2-{4-(5-Fluoro-benzo[d]isoxazol-3-yl)-piperazin-1-yl]-ethyl}-cyclohexyl)-3-methoxy-propionamide], the Ki in test [1] stood at 31.6 nM; in test [2], 2.56 nM; in test [3], 725 nM.

For the compound `Cc1cc2c(N3CCN(CC[C@H]4CC[C@H](NC(=O)C[C@H]5COCCO5)CC4)CC3)noc2cc1F` [Example 115, 2-(S)-[1,4]Dioxan-2-yl-N-trans-(4-{2-[4-(6-fluoro-5-methyl-benzo[d]isoxazol-3-yl)-piperazin-1-yl]-ethyl}-cyclohexyl)-acetamide], the inhibition constant Ki in test [1] is 10 nM; in test [2] it was 38 nM; in test [3], more than 9700 nM.

In the case of `Cc1cc2c(N3CCN(CC[C@H]4CC[C@H](NC(=O)CC5CCCO5)CC4)CC3)noc2cc1F` (stereo partly drawn) [Example 118, N-trans-(4-{2-[4-(6-Fluoro-5-methyl-benzo[d]isoxazol-3-yl)-piperazin-1-yl]-ethyl}-cyclohexyl)-2-(tetrahydro-furan-2-yl)-acetamide], the Ki stood at 21 nM in test [1], 22 nM in test [2] and 1070 nM in test [3].

Regarding `O=C(N[C@H]1CC[C@H](CCN2CCN(c3noc4cc(Cl)ccc34)CC2)CC1)C1CCOC1` (stereo partly drawn) [Example 34, Tetrahydro-furan-3-carboxylic acid N-trans-(4-{2-[4-(6-chloro-benzo[d]isoxazol-3-yl)-piperazin-1-yl]-ethyl}-cyclohexyl)-amide], the Ki amounted to 10.4 nM in test [1], 18.8 nM in test [2] and 193 nM in test [3].

As for `Cc1cc2c(N3CCN(CC[C@H]4CC[C@H](NC(=O)CC5CCCCO5)CC4)CC3)noc2cc1F` (stereo partly drawn) [Example 117, N-trans-(4-{2-[4-(6-Fluoro-5-methyl-benzo[d]isoxazol-3-yl)-piperazin-1-yl]-ethyl}-cyclohexyl)-2-(tetrahydro-pyran-2-yl)-acetamide], the inhibitory constant (Ki) in test [1] is 8 nM; in test [2], 33 nM; in test [3], more than 2000 nM.

For `O=C(CC1CCOCC1)N[C@H]1CC[C@H](CCN2CCN(c3noc4cc(F)c(F)cc34)CC2)CC1` [Example 63, N-trans-(4-{2-[4-(5,6-Difluoro-benzo[d]isoxazol-3-yl)-piperazin-1-yl]-ethyl}-cyclohexyl)-2-(tetrahydro-pyran-4-yl)-acetamide], the Ki in test [1] stood at 6.88 nM; in test [2] it was 7.13 nM; in test [3] it was 9710 nM.

Take `COC(CC(=O)N[C@H]1CC[C@H](CCN2CCN(c3noc4cc(F)c(Cl)cc34)CC2)CC1)OC` [Example 78, N-trans-(4-{2-[4-(5-Chloro-6-fluoro-benzo[d]isoxazol-3-yl)-piperazin-1-yl]-ethyl}-cyclohexyl)-3,3-dimethoxy-propionamide]: the inhibition constant (Ki) in test [1] turned out to be 5.05 nM; in test [2], 6.26 nM; in test [3] it was 1310 nM.

For the compound `O=C(CC(F)(F)F)N[C@H]1CC[C@H](CCN2CCN(c3noc4cc(F)c(Cl)cc34)CC2)CC1` [Example 93, N-trans-(4-{2-[4-(5-Chloro-6-fluoro-benzo[d]isoxazol-3-yl)-piperazin-1-yl]-ethyl}-cyclohexyl)-3,3,3-trifluoro-propionamide], the Ki in test [1] was determined as 6 nM; in test [2] it was 1.96 nM.

Source of the values: patent US7858630B2, “D3 and 5-HT2A receptor modulators” (Hoffmann-La Roche Inc., priority 2008, dated 2010).
